Reference: US8404691B2, “Imidazothiazole derivatives having proline ring structure” (Daiichi Sankyo Company, Limited, priority 2009, dated 2013)

Columns and labels:
[1] = Metabolic stability test (microsomal metabolism); assay type: in vitro ADME; settings: human liver microsomes, 37° C., 30 minutes after addition of NADP+; also: tested at 1.1 µM
Method: 100 μL of 100 mM phosphate buffer solution (pH 7.4) containing 3 μM test compound was added to 100 μL of reaction solution containing 100 mM phosphate buffer solution (pH 7.4), 30 mM glucose 6-phosphate, 10 mM MgCl2.6H2O, 3 units/mL glucose 6-phosphate 1-dehydrogenase, and 0.3 to 1.5 mgP/mL human liver microsomes and the mixture was incubated at 37° C. for 20 minutes. Then, 70 μL of 100 mM phosphate buffer solution (pH 7.4) containing 3 mM NADP+ was added and the mixture was further incubated at 37° C. for 30 minutes to conduct a microsomal metabolism test. The compound was quantified by the internal standard method using a quadrupole mass spectrometer connected to a high performance liquid chromatography apparatus. The metabolic stability (residual percentage of compound: MS %) was determined according to the following formula: MS(human)(%)=(peak area ratio of test compound after addition of NADP+ and incubation for 30 minutes)/(peak area ratio of test compound before addition of NADP+)×100.
(peak area ratio: peak area of test compound divided by that of internal standard substance)

[2] = tested on: human lung cancer-derived cell line NCI-H460 having wild-type p53; assay: Cell growth inhibition assay (MTT); assay type: cell-based; settings: 72 h, NCI-H460 cells, culturing 3 days, read-out: anti-cellular effect GI50 (50% growth inhibition concentration)
Method: A cell growth inhibition assay was conducted using human lung cancer-derived cell line NCI-H460 having wild-type p53.
NCI-H460 cells were suspended in a medium (RPMI1640 medium containing 10% fetal bovine serum) and the suspension was inoculated in an amount of 500 cells/150 μL/well to a 96-well multiwell plate. A test compound was dissolved in DMSO and this solution was diluted with medium to prepare a sample solution (DMSO concentration: 1% or lower). On the next day of inoculation, medium nonsupplemented with the test compound or the sample solution was added in an amount of 50 μL/well. The MTT assay was conducted immediately after the medium was added in an amount of 50 μL on the next day of cell inoculation, and after the sample solution or the medium was added to cells followed by culturing at 37° C. for 3 days in a 5% CO2 atmosphere. The MTT assay was conducted as shown below.
A 5 mg/mL MTT (3-(4,5-dimethylthiazol-2-yl)-2,5-diphenyltetrazolium bromide, Sigma-Aldrich Co., M-2128) solution was prepared using a phosphate buffer solution (Dulbecco's Phosphate-buffered Saline). This MTT solution was added in an amount of 20 μL/well. Then, the plate was cultured at 37° C. for 4 hours in a 5% CO2 atmosphere. The plate was centrifuged at 1200 rpm for 5 minutes and then the culture supernatant was removed by aspiration using a dispenser. DMSO was added in an amount of 150 μL/well to dissolve generated formazan. The plate was stirred using a plate mixer for uniform color development from each well. The absorbance of each well was measured under conditions of OD 540 nm and reference 660 nm using a plate reader (SpectraMax PLUS384, Molecular Devices, CA, USA).
The OD value measured on the day of adding the sample solution was defined as S. The OD value measured three days after addition of the sample solution was defined as T. The OD value measured three days after addition of the DMSO dilution was defined as C. T/C (%) was determined at each concentration according to the calculation formula shown below to prepare a dose response curve, from which 50% growth inhibition concentration (GI50 value) was calculated. T/C(%)=(T−S)/(C−S)×100

[3] = biological target: T1, Mdm2/p53 binding (Homo sapiens, UniProt Q00987, L33E); assay: Mdm2/p53 binding assay (HTRF, His-p53 and GST-Mdm2); settings: His-p53 (aa 1-132) and GST-Mdm2 (aa 25-108, L33E), 6.25 nM each, 25° C. for 1 hour
T1 construct: Mdm2 amino acids at positions 25 to 108
Method: Next, a test compound was diluted with DMSO to produce protein buffer solution containing 10% dilution, and this buffer solution was added in an amount of 4 μL/well to the plate.
These dilutions were added in an amount of 8 μL/well (total reaction solution volume: 20 μl/well). Then, the plate was left at 25° C. for 1 hour.
The R value calculated from the well supplemented with His-p53, GST-Mdm2, the test compound, and each antibody was defined as R (sample). The R value calculated from the well supplemented with His-p53, GST-Mdm2, and each antibody but without the test compound was defined as R (control). The R value calculated from the well supplemented with GST-Mdm2, the test compound, and each antibody but without His-p53 was defined as R (background). T/C was calculated from the formula shown below. An IC50 value for Mdm2/p53 binding was calculated by sigmoid fitting. T/C=(R(sample)−R(background))/(R(control)−R(background))

T1 sequence (Q00987 25-108 L33E): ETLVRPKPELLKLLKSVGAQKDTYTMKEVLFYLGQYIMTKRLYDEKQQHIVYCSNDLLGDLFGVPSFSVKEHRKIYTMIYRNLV

MS (human) % (metabolic stability, residual percentage of compound) [1] [%]	GI50 [2] [nM]	IC50 [3] [nM]	SMILES
100	400 to 2500	3.2	CC(C)C1=C(C(=O)N2C[C@H](F)C[C@H]2C(=O)N2CC3(CC3)NC[C@@H]2CO)SC2=N[C@@](C)(c3ccc(Cl)nc3)[C@@H](c3ccc(Cl)c(F)c3)N21 [Example 11, {(6R)-7-[(4R)-1-{[(5R,6S)-5-(4-chloro-3-fluorophenyl)-6-(6-chloropyridin-3-yl)-3-isopropyl-6-methyl-5,6-dihydroimidazo[2,1-b][1,3]thiazol-2-yl]carbonyl}-4-fluoro-L-prolyl]-4,7-diazaspiro[2.5]oct-6-yl}methanol]
96	< 400	2.2	CC[C@H]1CNC2(CC2)CN1C(=O)[C@@H]1C[C@@H](F)CN1C(=O)C1=C(C(C)C)N2C(=N[C@@](C)(c3ccc(Cl)cc3)[C@H]2c2ccc(Cl)cc2)S1 [Example 21]
93	< 400	1.6	CC(C)C1=C(C(=O)N2C[C@H](F)C[C@H]2C(=O)N2CC3(CC3)NC[C@@H]2C)SC2=N[C@@](C)(c3ccc(Cl)cc3)[C@@H](c3ccc(Cl)cc3)N21 [Example 19]
100	400 to 2500	3.6	CC(C)C[C@@H]1CNC2(CC2)CN1C(=O)[C@@H]1C[C@@H](F)CN1C(=O)C1=C(C(C)C)N2C(=N[C@@](C)(c3ccc(Cl)nc3)[C@H]2c2ccc(Cl)c(F)c2)S1 [Example 7, (6R)-7-[(4R)-1-{[(5R,6S)-5-(4-chloro-3-fluorophenyl)-6-(6-chloropyridin-3-yl)-3-isopropyl-6-methyl-5,6-dihydroimidazo[2,1-b][1,3]thiazol-2-yl]carbonyl}-4-fluoro-L-prolyl]-6-isobutyl-4,7-diazaspiro[2.5]octane]
6	< 400	3.1	CC(C)C1=C(C(=O)N2C[C@H](F)C[C@H]2C(=O)N2CC3(CC3)NC[C@@H]2CF)SC2=N[C@@](C)(c3ccc(Cl)nc3)[C@@H](c3ccc(Cl)c(F)c3)N21 [Example 31]
100	400 to 2500	16	CC(C)C1=C(C(=O)N2C[C@H](F)C[C@H]2C(=O)N2CC3(CC3)NC[C@H]2C(=O)O)SC2=N[C@@](C)(c3ccc(Cl)nc3)[C@@H](c3ccc(Cl)c(F)c3)N21 [Example 14]
44	400 to 2500	3.3	CC(C)C1=C(C(=O)N2C[C@H](F)C[C@H]2C(=O)N2CC3(CC3)N(C)C[C@H]2C)SC2=N[C@@](C)(c3ccc(Cl)nc3)[C@@H](c3ccc(Cl)c(F)c3)N21 [Example 17]
60	< 400	2.6	CC[C@@H]1CNC2(CC2)CN1C(=O)[C@@H]1C[C@@H](F)CN1C(=O)C1=C(C(C)C)N2C(=N[C@@](C)(c3ccc(Cl)cc3)[C@H]2c2ccc(Cl)cc2)S1 [Example 22]
56	< 400	2.3	CC(C)C1=C(C(=O)N2C[C@H](F)C[C@H]2C(=O)N2CC3(CC3)N(C)C[C@@H]2C)SC2=N[C@@](C)(c3ccc(Cl)nc3)[C@@H](c3ccc(Cl)c(F)c3)N21 [Example 16]
57	400 to 2500	2.7	CC(C)C1=C(C(=O)N2C[C@H](F)C[C@H]2C(=O)N2CCNC3(CC3)C2)SC2=N[C@@](C)(c3ccc(Cl)nc3)[C@@H](c3ccc(Cl)cc3)N21 [Example 26]
62	400 to 2500	3.1	CC[C@@H]1CNC2(CC2)CN1C(=O)[C@@H]1C[C@@H](F)CN1C(=O)C1=C(C(C)C)N2C(=N[C@@](C)(c3ccc(Cl)nc3)[C@H]2c2ccc(Cl)cc2)S1 [Example 30]
